# Experimental data from US20240287082A1, “NEW BENZODIAZEPINE DERIVATIVES AS GABA A GAMMA1 PAM” (Hoffmann-La Roche Inc., priority 2021, published 2024).
# pKi: −log10 of the molar value. Like-named read-outs stand apart in the source and are kept apart here.
# Tests used:
# [1] = molecular target: human GABAA α2β2γ1 receptor (Homo sapiens (Human), UniProt P47869+Q8N1C3); experiment: Radioligand binding assay, competition for [3H]RO7239181, γ1-containing GABAA subtype α2β2γ1; details: for γ2/γ1 Selectivity Ratio: Ki α1β3γ2 (nM)/Ki α2β2γ1 (nM); for LogSel: Log[Ki α1β3γ2 (nM)/Ki α2β2γ1 (nM)]
# Method: (§1) The affinity of compounds at GABAA γ1 subunit-containing receptors was measured by competition for [^3H]RO7239181 (67.3 Ci/mmol; Roche) binding to membranes from HEK293F cells (ThermoFisher R^79007) expressing human (transiently transfected) receptors of composition α5β2γ1, α2β2γ1, α1β2γ1.
# (§2) Harvested pellets from HEK293F cells expressing the different GABAA receptor subtypes were resuspended in Mannitol Buffer pH 7.2-7.4 (Mannitol 0.29M, Triethylamine 10 mM, Acetic acid 10 mM, EDTA 1 mM plus protease inhibitors (20 tablets Complete, Roche Diagnostics Cat. No. 05 056 489 001 per liter)), washed two times and then resuspended at 1:10 to 1:15 dilution in the same buffer. Cell disruption was performed by stirring the suspension in a Parr vessel #4637 at 435 psi for 15 minutes, and then the suspensions were centrifuged at 1000×g for 15 minutes at 4° C. (Beckman Avanti J-HC: rotor JS-4.2). The supernatant (S1) was transferred in a 21 Schott flask and the pellet (P1) was resuspended with Mannitol Buffer up to 175 ml. The resuspended pellet was transferred into a 250 ml Corning centrifugal beaker and centrifuged at 1500×g for 10 minutes at 4° C. (Beckman Avanti J-HC: rotor JS-4.2). The supernatant (S1) was then transferred in the 21 Schott flask and the pellet was discarded. The supernatants (S1) were centrifuged in 500 ml Beckman polypropylene centrifugal beaker at 15 000×g for 30 minutes at 4° C. (Beckman Avanti J-20 XP: rotor JLA-10.500). The pellet (P2) was resuspended with Mannitol Buffer 1:1 and frozen at −80° C. The supernatant (S2) was centrifuged in 100 ml Beckman polypropylene centrifugal tubes at 48000×g for 50 minutes at 4° C. (Beckman Avanti J-20 XP: rotor JA-18). The supernatant (S3) was discarded and the pellet (P3) was resuspended with 1:1 Mannitol Buffer. The P2 and P3 protein concentration was determined with the BIORAD Standard assay method with bovine serum albumin as standard and measured on the NANO-Drop 1000. The membrane suspension was aliquots (500 μl per tube) and stored at −80° C. until required.
# (§3) Membrane homogenates were resuspended and polytronised (Polytron PT1200E Kinematica AG) in Potassium Phosphate 10 mM, KCl 100 mM binding buffer at pH 7.4 to a final assay concentration determined with a previous experiment.
# (§4) Assays were incubated to equilibrium for 1 hour at 4° C. and then, membranes were filtered onto unifilter (96-well white microplate with bonded GF/C filters preincubated 20-50 minutes in 0.3% Polyethylenimine) with a Filtermate 196 harvester (Packard BioScience) and washed 4 times with cold Potassium Phosphate 10 mM pH 7.4, KCl 100 mM binding buffer. After anhydrousing, filter-retained radioactivity was detected by liquid scintillation counting. Ki values were calculated using Excel-Fit (Microsoft) and are the means of two determinations.
# [2] = molecular target: human GABAA α1β3γ2 receptor (Homo sapiens (Human), UniProt P14867+P18507); experiment: Radioligand binding assay, competition for [3H]Flumazenil, γ2-containing GABAA subtype α1β3γ2
# Method: The affinity of compounds at GABAA γ2 subunit-containing receptors was measured by competition for [^3H]Flumazenil (81.1 Ci/mmol; Roche) binding to HEK293F cells expressing human (transiently transfected) receptors of composition α1β3γ2.
# Harvested pellets from HEK293F cells expressing the different GABAA γ2 receptor subtypes were resuspended in Mannitol Buffer pH 7.2-7.4 and processed as described above for the cells expressing the GABAA γ1 subunit-containing receptors.
# Assays were incubated to equilibrium for 1 hour at 4° C. and harvested onto GF/C uni-filters (Packard) by filtration using a Packard harvester and washing with ice-cold wash buffer (50 mM Tris; pH 7.5). After anhydrousing, filter-retained radioactivity was detected by liquid scintillation counting. Ki values were calculated using Excel-Fit (Microsoft) and are the means of two determinations.
# [3] = molecular target: human GABAA α1β2γ1 receptor (Homo sapiens (Human), UniProt P14867+Q8N1C3); experiment: Radioligand binding assay, competition for [3H]RO7239181, γ1-containing GABAA subtype α1β2γ1; details: membranes of HEK293F cells, [3H]RO7239181 20-30 nM, mean of two determinations
# Method: as §1, §2, §3, §4
# [4] = Table 2, membranes of HEK293F cells, [3H]RO7239181, read-out: Ki h-GABAA α2β2γ1
# [5] = membranes of HEK293F cells, [3H]RO7239181 20-30 nM, mean of two determinations, read-out: Ki h-GABAA α2β2γ1
# [6] = HEK293F cell membranes, [3H]Flumazenil 1 nM, mean of two determinations, read-out: Ki h-GABAA α1β3γ2
# [7] = read-out: Ki h-GABAA α2β2γ1, Table 2, membranes of HEK293F cells, [3H]RO7239181
Structure (SMILES),γ2/γ1 Selectivity Ratio [1],LogSel [1],"pKi [1, 4]","pKi [1, 5]","pKi [2, 6]",pKi [1],"pKi [1, 7]",pKi [3],pKi [2]
"CCO/C=C/c1cn2c(nc1=O)[C@H](C)N=C(c1c(F)cccc1F)c1c-2ccc(Cl)c1Cl [Example 19, (5S)-8,9-dichloro-7-(2,6-difluorophenyl)-2-[(E)-2-ethoxyvinyl]-5-methyl-5H-pyrimido[1,2-a][1,4]benzodiazepin-3-one]",48.4,1.68,7.62,7.62,5.93,,,,
"CCOCCc1cn2c(nc1=O)CN=C(c1c(F)cccc1F)c1c-2ccc(C(F)(F)F)c1Cl [Example 26, 8-chloro-7-(2,6-difluorophenyl)-2-(2-ethoxyethyl)-9-(trifluoromethyl)-5H-pyrimido[1,2-a][1,4]benzodiazepin-3-one]",400.1,2.60,7.12,7.12,< 4.52,,,,
"CCO/C=C/c1cn2c(nc1=O)[C@H](C)N=C(c1c(F)cccc1F)c1c-2ccc(C(F)(F)F)c1Cl [Example 18, (5S)-8-chloro-7-(2,6-difluorophenyl)-2-[(E)-2-ethoxyvinyl]-5-methyl-9-(trifluoromethyl)-5H-pyrimido[1,2-a][1,4]benzodiazepin-3-one]",104.6,2.02,7.22,7.22,5.20,,,,
"C[C@@H]1N=C(c2c(F)cccc2F)c2c(ccc(Cl)c2Cl)-n2ccc(=O)nc21 [Example 4, (5S)-8,9-dichloro-7-(2,6-difluorophenyl)-5-methyl-5H-pyrimido[1,2-a][1,4]benzodiazepin-3-one]",68.7,1.84,,,,7.88,7.88,7.59,6.04
"CCOCCc1cn2c(nc1=O)[C@H](C)N=C(c1c(F)cccc1F)c1c-2ccc(C(F)(F)F)c1Cl [Example 20, (5S)-8-chloro-7-(2,6-difluorophenyl)-2-(2-ethoxyethyl)-5-methyl-9-(trifluoromethyl)-5H-pyrimido[1,2-a][1,4]benzodiazepin-3-one]",88.1,1.95,7.00,7.00,5.05,,,,
"C[C@@H]1N=C(c2c(F)cccc2F)c2c(ccc(C(F)(F)F)c2Cl)-n2cc(C(=O)NC3CC3)c(=O)nc21 [Example 28, (5S)-8-chloro-N-cyclopropyl-7-(2,6-difluorophenyl)-5-methyl-3-oxo-9-(trifluoromethyl)-5H-pyrimido[1,2-a][1,4]benzodiazepine-2-carboxamide]",338.4,2.53,7.48,7.48,4.95,,,,
"Cc1cn2c(nc1=O)[C@H](C)N=C(c1c(F)cccc1F)c1c-2ccc(C(F)(F)F)c1Cl [Example 9, (5S)-8-chloro-7-(2,6-difluorophenyl)-2,5-dimethyl-9-(trifluoromethyl)-5H-pyrimido[1,2-a][1,4]benzodiazepin-3-one]",209.4,2.32,,,,7.55,7.55,7.01,5.23
"CCc1cn2c(nc1=O)[C@H](C)N=C(c1c(F)cccc1F)c1c-2ccc(C(F)(F)F)c1Cl [Example 11, (5S)-8-chloro-7-(2,6-difluorophenyl)-2-ethyl-5-methyl-9-(trifluoromethyl)-5H-pyrimido[1,2-a][1,4]benzodiazepin-3-one]",151.9,2.18,,,,7.40,7.40,6.78,5.22
"CCOCCc1cn2c(nc1=O)[C@H](C)N=C(c1c(F)cccc1F)c1c-2ccc(Cl)c1Cl [Example 21, (5S)-8,9-dichloro-7-(2,6-difluorophenyl)-2-(2-ethoxyethyl)-5-methyl-5H-pyrimido[1,2-a][1,4]benzodiazepin-3-one]",61.6,1.79,7.63,7.63,5.84,,,,
"CCO/C=C/c1cn2c(nc1=O)CN=C(c1c(F)cccc1F)c1c-2ccc(C(F)(F)F)c1Cl [Example 25, 8-chloro-7-(2,6-difluorophenyl)-2-[(E)-2-ethoxyvinyl]-9-(trifluoromethyl)-5H-pyrimido[1,2-a][1,4]benzodiazepin-3-one]",306.4,2.49,7.32,7.32,4.83,,,,
"CCO/C=C/c1cn2c(nc1=O)CN=C(c1c(F)cccc1F)c1c-2ccc(Cl)c1Cl [Example 22, 8,9-dichloro-7-(2,6-difluorophenyl)-2-[(E)-2-ethoxyvinyl]-5H-pyrimido[1,2-a][1,4]benzodiazepin-3-one]",73.8,1.87,7.82,7.82,5.95,,,,
"O=c1ccn2c(n1)CN=C(c1c(F)cccc1F)c1c-2ccc(Cl)c1Cl [Example 2, 8,9-dichloro-7-(2,6-difluorophenyl)-5H-pyrimido[1,2-a][1,4]benzodiazepin-3-one]",47.7,1.68,,,,8.01,8.01,8.07,6.34
"O=c1ccn2c(n1)CN=C(c1ncccc1F)c1c-2ccc(Cl)c1Cl [Example 3, 8,9-dichloro-7-(3-fluoro-2-pyridyl)-5H-pyrimido[1,2-a][1,4]benzodiazepin-3-one]",19.6,1.29,,,,6.95,6.95,6.74,5.66
"C[C@@H]1N=C(c2c(F)cccc2F)c2c(ccc(C(F)(F)F)c2Cl)-n2ccc(=O)nc21 [Example 10, (5S)-8-chloro-7-(2,6-difluorophenyl)-5-methyl-9-(trifluoromethyl)-5H-pyrimido[1,2-a][1,4]benzodiazepin-3-one]",112.1,2.05,,,,7.26,7.26,6.80,5.21
"CCOCCc1cn2c(nc1=O)CN=C(c1c(F)cccc1F)c1c-2ccc(Cl)c1Cl [Example 24, 8,9-dichloro-7-(2,6-difluorophenyl)-2-(2-ethoxyethyl)-5H-pyrimido[1,2-a][1,4]benzodiazepin-3-one]",60.1,1.78,7.52,7.52,5.74,,,,
"C[C@@H]1N=C(c2c(F)cccc2F)c2c(ccc(Br)c2Cl)-n2ccc(=O)nc21 [Example 13, (5S)-9-bromo-8-chloro-7-(2,6-difluorophenyl)-5-methyl-5H-pyrimido[1,2-a][1,4]benzodiazepin-3-one]",53.3,1.73,,,,7.94,7.94,7.75,6.22
